Among the data in patent US5962480A, “Drug for ameliorating brain diseases” (Wakunaga Pharmaceutical Co., Ltd., priority 1995, dated 1999) are viability values, retold here.

Where a name gives a salt, the structure may show the parent alone.

The test system of the test is hippocampus neurons. Put plainly: inhibition of reduction in survival rate of neurons, hippocampus (number of surviving cells). As to conditions: Rattus norvegicus, Neuron, 72 h, control 100%, read-out: Inhibitory effect against reduction in survival rate of neurons (survival rate class); for viability at 10 µg/mL: 10^-5 g/ml; for viability at 1 µg/mL: 10^-6 g/ml; for viability at 0.1 µg/mL: 10^-7 g/ml; for viability at 0.01 µg/mL: 10^-8 g/ml; for viability at 0.001 µg/mL: 10^-9 g/ml. The class given is cell-based, rat. How it is done:
From a rat at the 18th day of pregnancy (having an 18 -day old embryo) the uterus was aseptically removed under etherification, and the fetus was obtained. The whole brain was collected from the fetus. From the brain placed in an L-15 medium were removed under a microscope the hippocampus, striate body, septum, cerebral cortex, and cerebellum. They were respectively minced with a knife. The minced tissue was treated by the addition of trypsin (0.25%) and DNase (0.01%) for 30 minutes at 37° C. to thereby isolate cells. The thus-isolated cells were suspended in Eagle's MEM medium supplemented with 10% fetal calf serum, and inoculated at a concentration of 4×10^4 cells/cm^2 into wells of a 48-well plate which had been coated with poly-L-lysin in advance. Following incubation for 24 hours, the medium was replaced by a serum-free DMEM/F-12 medium containing the drug. After three-days' additional incubation (six days for the striate body), the cells were fixed, stained, and the number of surviving cells in each well was counted. Compounds (2) through (14) were tested analogously to Example 1 using hippocampus cells prepared in a manner similar to Example 1. As structural comparative compounds, the following compounds were used: 4H-pyran-4-one (hereinafter referred as Compound (15) and 3-methoxy-6 -hydroxymethyl-4H-pyran-4-one (hereinafter referred to as Compound (16)).

Turning to `Cc1cc(=O)c(O)co1` [Compound (2), 3-Hydroxy-6-methyl-4H-pyran-4-one], the viability at 10 µg/mL lay in the range of 130 to 150%, the viability at 1 µg/mL was in the range of 110 to 130%, the viability at 0.1 µg/mL lay within 90 to 110% and the viability at 0.01 µg/mL fell in the range of 90 to 110%. Moreover, the viability at 0.001 µg/mL lay in the range of 90 to 110%.
As for `CCCc1oc(C)cc(=O)c1O` [Compound (4), 3-Hydroxy-6-methyl-2-propyl-4H-pyran-4-one], the viability at 1 µg/mL fell in the range of 90 to 110%, the viability at 0.1 µg/mL fell in the range of 110 to 130%, the viability at 0.01 µg/mL was 90 to 110% and the viability at 0.001 µg/mL lay in the range of 90 to 110%.
In the case of `CCCCCc1oc(C)cc(=O)c1O` [Compound (5), 3-Hydroxy-6-methyl-2-pentyl-4H-pyran-4-one], the viability at 1 µg/mL is not above 90%, the viability at 0.1 µg/mL lay within 110 to 130%, the viability at 0.01 µg/mL fell in the range of 90 to 110% and the viability at 0.001 µg/mL lay in the range of 90 to 110%.
`Cc1cc(=O)c(O)c(CO)o1` [Compound (6), 3-Hydroxy-6-methyl-2-hydroxymethyl-4H-pyran-4-one]: the viability at 10 µg/mL fell in the range of 110 to 130%, the viability at 1 µg/mL lay in the range of 110 to 130%, the viability at 0.1 µg/mL lay within 110 to 130% and the viability at 0.01 µg/mL lay in the range of 90 to 110%. For the same compound, the viability at 0.001 µg/mL fell in the range of 90 to 110%.
`Cc1cc(=O)c(O)c(CN(C)C)o1` [Compound (7), 3-Hydroxy-6-methyl-2-dimethylaminomethyl-4H-pyran-4-one-HCl]: the viability at 10 µg/mL is 110 to 130%, the viability at 1 µg/mL lay in the range of 110 to 130%, the viability at 0.1 µg/mL lay in the range of 90 to 110% and the viability at 0.01 µg/mL is 90 to 110%. Moreover, the viability at 0.001 µg/mL lay within 90 to 110%.
Take `O=c1cc(CO)occ1O` [Compound (8), 3-Hydroxy-6-hydroxymethyl-4H-pyran-4-one]: the viability at 10 µg/mL is 110 to 130%, the viability at 1 µg/mL lay in the range of 110 to 130%, the viability at 0.1 µg/mL is 90 to 110% and the viability at 0.01 µg/mL lay within 90 to 110%. The viability at 0.001 µg/mL was 90 to 110%.
Turning to `CCCCCc1oc(CO)cc(=O)c1O` [Compound (9), 3-Hydroxy-6-hydroxymethyl-2-pentyl-4H-pyran-4-one], the viability at 10 µg/mL lay within 110 to 130%, the viability at 1 µg/mL is 90 to 110%, the viability at 0.1 µg/mL was 90 to 110% and the viability at 0.01 µg/mL was 90 to 110%. The viability at 0.001 µg/mL is 90 to 110%.
For `CCCCC(O)c1oc(CO)cc(=O)c1O` (stereo not drawn) [Compound (10), 3-Hydroxy-6-hydroxymethyl-2-(1'-hydroxypentyl)-4H-pyran-4-one], the viability at 10 µg/mL was 130 to 150%, the viability at 1 µg/mL fell in the range of 110 to 130%, the viability at 0.1 µg/mL lay in the range of 90 to 110% and the viability at 0.01 µg/mL lay in the range of 90 to 110%. Further, the viability at 0.001 µg/mL lay within 90 to 110%.
Regarding `CCCCCc1oc(C)c(O)c(=O)c1O` [Compound (11), 3,5-Dihydroxy-6-methyl-2-pentyl-4H-pyran-4-one], the viability at 1 µg/mL was not above 90%, the viability at 0.1 µg/mL was 130 to 150%, the viability at 0.01 µg/mL lay within 90 to 110% and the viability at 0.001 µg/mL lay in the range of 90 to 110%.
For `O=c1cc(C=Cc2ccccc2)occ1O` [Compound (12), 3-Hydroxy-6-styryl-4H-pyran-4-one], the viability at 10 µg/mL is not above 90%, the viability at 1 µg/mL was in the range of 110 to 130%, the viability at 0.1 µg/mL is 110 to 130% and the viability at 0.01 µg/mL was 90 to 110%. Moreover, the viability at 0.001 µg/mL lay within 90 to 110%.
For the compound `CC1=CC(=O)C(O)C=N1` (stereo not drawn) [Compound (13), 3-Hydroxy-6-methyl-4-pyridone], the viability at 10 µg/mL fell in the range of 130 to 150%, the viability at 1 µg/mL fell in the range of 110 to 130%, the viability at 0.1 µg/mL is 90 to 110% and the viability at 0.01 µg/mL is 90 to 110%. For the same compound, the viability at 0.001 µg/mL was 90 to 110%.
On to `O=C1C=C(CO)N=CC1O` (stereo not drawn) [Compound (14), 3-Hydroxy-6-hydroxymethyl-4-pyridone], for which the viability at 10 µg/mL is 110 to 130%, the viability at 1 µg/mL is 90 to 110%, the viability at 0.1 µg/mL lay within 90 to 110% and the viability at 0.01 µg/mL was 90 to 110%. Further, the viability at 0.001 µg/mL lay within 90 to 110%.
